The supplement of paper PMC10307832

Legend:
Assay in all cases: relative viability (nuclei count vs DMSO), 5 days (fraction); higher = more cells survive
[1] = compound: C1CN(CCN1)C2=CC=C(C=C2)C3=CN4C(=C(C=N4)C5=CC=NC6=CC=CC=C56)N=C3 [DM3189] + Nc1ncn([C@H]2C[C@H](O)[C@@H](CO)O2)c(=O)n1 [Decitabine] (partner 2 µM)
How it was run: (§1)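 Lung cancer cell lines in 1536-well plates got either a single drug or a fixed anchor-drug dose together with five library-drug doses (not always all listed) in √10 steps, by pin tool, on the day after seeding. Nuclei were counted after 5 days, and relative viability is the treated-to-vehicle ratio of nuclei counts. Values are medians of duplicate plates.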

[2] = compound: C1CN(CCN1)C2=CC=C(C=C2)C3=CN4C(=C(C=N4)C5=CC=NC6=CC=CC=C56)N=C3 [DM3189] + Cc1cc(Nc2cc(N3CCN(C)CC3)nc(Sc3ccc(NC(=O)C4CC4)cc3)n2)n[nH]1 [Tozasertib] (partner 0.1 µM)
How it was run: as §1

[3] = compound: C1CN(CCN1)C2=CC=C(C=C2)C3=CN4C(=C(C=N4)C5=CC=NC6=CC=CC=C56)N=C3 [DM3189] + COc1cc2c(Oc3ccc(NC(=O)C4(C(=O)Nc5ccc(F)cc5)CC4)cc3F)ccnc2cc1OCCCN1CCOCC1 [Foretinib] (partner 0.25 µM)
How it was run: as §1

[4] = compound: C1CN(CCN1)C2=CC=C(C=C2)C3=CN4C(=C(C=N4)C5=CC=NC6=CC=CC=C56)N=C3 [DM3189] + CC1(C)CCC(c2ccc(Cl)cc2)=C(CN2CCN(c3ccc(C(=O)NS(=O)(=O)c4ccc(N[C@H](CCN5CCOCC5)CSc5ccccc5)c(S(=O)(=O)C(F)(F)F)c4)cc3)CC2)C1 [Navitoclax] (partner 0.5 µM)
How it was run: as §1

[5] = compound: C1CN(CCN1)C2=CC=C(C=C2)C3=CN4C(=C(C=N4)C5=CC=NC6=CC=CC=C56)N=C3 [DM3189] + Cc1nc(Nc2ncc(C(=O)Nc3c(C)cccc3Cl)s2)cc(N2CCN(CCO)CC2)n1 [Dasatinib] (partner 0.075 µM)
How it was run: as §1

Cell Line	relative viability ([1]; first compound 0.08 µM)	relative viability ([1]; first compound 0.253 µM)	relative viability ([1]; first compound 0.8 µM)	relative viability ([1]; first compound 2.53 µM)	relative viability ([2]; first compound 0.08 µM)	relative viability ([2]; first compound 0.253 µM)	relative viability ([2]; first compound 0.8 µM)	relative viability ([2]; first compound 2.53 µM)	relative viability ([3]; first compound 0.08 µM)	relative viability ([3]; first compound 0.253 µM)	relative viability ([3]; first compound 0.8 µM)	relative viability ([3]; first compound 2.53 µM)	relative viability ([4]; first compound 0.08 µM)	relative viability ([4]; first compound 0.253 µM)	relative viability ([4]; first compound 0.8 µM)	relative viability ([4]; first compound 2.53 µM)	relative viability ([5]; first compound 0.08 µM)	relative viability ([5]; first compound 0.253 µM)	relative viability ([5]; first compound 0.8 µM)	relative viability ([5]; first compound 2.53 µM)
201T	0.831	0.817	0.828	0.875	0.998	0.913	1.02	0.781	1.01	1.03	0.73	1.27	1.17	1.21	1.18	1.23	0.589	0.543	0.385	0.557
A549	0.26	0.282	0.251	0.325					0.989	0.95	0.998	0.976	1.23	1.27	1.28	1.3				
A-427	0.591	0.546	0.541	0.618	0.191	0.212	0.204	0.216	1.09	1.23	1.04	1.22	0.937	0.936	0.893	1.13	0.765	0.78	0.684	0.732
ABC-1	1.1	1.08	1.21	1.04	0.192	0.134	0.165	0.175	1.14	1.18	1.08	0.906					0.607	0.559	0.448	0.423
BEN	0.7	0.707	0.714	0.752	0.416	0.465	0.483	0.444	0.79	0.582	0.533	0.734	0.448	0.0733	0.0662	0.0697	0.314	0.295	0.319	0.33
CAL-12T					0.318	0.234	0.327	0.403	1.2	1.07	1.13	1.12	1.16	1.09	1.25	1.35	0.546	0.469	0.487	0.571
COR-L23	0.424	0.39	0.348	0.434	0.19	0.196	0.147	0.187	1.12	0.844	0.828	0.993	1.09	0.961	0.893	1	0.543	0.525	0.458	0.525
COR-L 105	0.781	0.689	0.535	0.635	0.434	0.371	0.32	0.358	1.22	1.23	1.06	1.17	0.861	0.675	0.729	0.816	0.427	0.449	0.348	0.327
ChaGo-K-1	0.521	0.507	0.475	0.537	0.235	0.228	0.222	0.233	1.07	0.903	0.858	0.976	1.22	0.971	1.1	0.825	0.734	0.563	0.561	0.535
EKVX	0.331		0.359	0.363	0.44	0.407	0.449	0.352	0.892	0.82	0.539	0.803	0.816	0.899	0.9	1.07	0.542	0.473	0.457	0.518
EMC-BAC-2	0.954	0.968	0.909	1.01	0.302	0.283	0.254	0.323	0.981	0.966	0.938	1.18	1.13	1.14	1.13	1.02	0.372	0.32	0.319	0.353
EPLC-272H	0.374	0.359	0.364	0.424	0.418	0.252	0.235	0.253	0.677	0.67	0.783	0.59	1.25	1.07	1.11	1.08	0.406	0.375	0.276	0.265
H3255	0.718	0.748	0.473	0.71	0.271	0.604	0.715	0.762	1.13	0.936	0.764	0.85	0.685	0.577	0.559	0.5	0.553	0.303	0.442	0.32
HARA	0.523	0.574	0.531	0.555	0.0946	0.0943	0.0953	0.0845	0.979	0.454	0.87	1.09	1.13	1.09	1.08	1.21	0.358	0.262	0.306	0.313
HCC-15	0.648	0.674	0.571	0.534	0.246	0.44	0.35	0.375	1.16	0.962	1	0.927	0.687	0.675	0.646	0.735	0.632	0.541	0.492	0.559
HCC-44	0.941	0.904	0.821	0.934	0.999	0.912	0.727	0.954					1.12	1.11	0.813	1.44				
HCC-78	0.723	0.644	0.632	0.625	0.263	0.464	0.411	0.465	0.549	0.534	0.529	0.435	0.877	0.725		0.976	0.362	0.495	0.393	0.381
